What was measured:
murine leukaemia L1210 = system: murine leukaemia L1210; parameters: method as in Leopold et al, 1984; settings: ref Leopold et al, 1984; cited from earlier work
[1] = parameters: method as in Clinical Brochure Fostriecin, 1991; settings: mouse; 5-day schedule; ref Clinical Brochure Fostriecin, 1991; cited from earlier work
murine leukaemia P388 = system: murine leukaemia P388; parameters: method as in Leopold et al, 1984; settings: ref Leopold et al, 1984; cited from earlier work
GLC4/VM20x = test: Microtiterwell tetrazolium growth-inhibition assay, medium with 40% pooled human plasma; assay type: cell-based; settings: GLC4, 96 h; 4 days; medium with 40% human plasma; 95% CI 5.3-6.5
Source text: (§1) Fostriecin (CI-920) is a topoisomerase (topo) II catalytic activity inhibitor (Boritzki et al, 1988) (Figure 1). This novel class of topo II-targeting drugs is considered of potential value for treatment of patients with tumours resistant to classic topo II poisons, including anthracyclines and podophyllotoxins (Cummings and Smyth, 1993). The nuclear enzyme topo II is essential for the regulation of DNA conformation (reviewed in Osheroff et al, 1991). Central in its action is the formation of a complex with DNA. Stabilization of this complex by topo II poisons induces DNA damage and cell death (Froelich-Ammon and Osheroff, 1995). Decreased complex formation due to decreased topo II levels is considered to be an important mechanism of tumour-resistance to topo II poisons (Beck and Danks, 1991). The topo II catalytic inhibitor fostriecin is expected to have increased activity against tumour cells with low topo II levels and this was confirmed in in vitro studies (De Jong et al, 1991). […] Drug pharmacokinetics was analysed with high performance liquid chromatography with UV-detection. […] A metabolite, most probably dephosphorylated fostriecin, was detected in plasma and urine. […]

solid tumour = test: Tumour response in phase I patients; assay type: in vivo, human; settings: 2-20 mg m-2 day-1, days 1-5 every 4 weeks; 10 patients with measurable disease
Source text: as §1

C[C@@](O)(/C=C/[C@H]1CC=CC(=O)O1)[C@@H](C[C@@H](O)\C=C/C=C\C=C\CO)OP(=O)(O)O [fostriecin]
activity against L1210 (murine leukaemia L1210): active | LD10 [1]: 120 mg m-2 day-1 | activity against P388 (murine leukaemia P388): active | IC50 (GLC4/VM20x): 5.9 µM | tumour responses (solid tumour): No tumour responses
